Experiments:
Format in all cases: binding
TSPyV VP1 [1] = molecular target: T1, TSPyV VP1 (Trichodysplasia spinulosa-associated polyomavirus, UniProt E2ESL7); assay: X-ray co-crystal structure ([…] Å); details: 10 mM glycan, co-crystallization, 20 °C, reservoir pH 5.0; BC2-loop site with ccw DE-loop
T1 construct: N- and C-terminally truncated VP1 (aa 31-304), pET28b, E. coli BL21(DE3); unassembled homopentamer

TSPyV VP1 [2] = molecular target: T1, TSPyV VP1; assay: X-ray crystal structure, soaked ([…] Å); details: 10 mM glycan, 15 min soak of native crystals, reservoir pH 5.0; BC2-loop site with ccw DE-loop
TSPyV VP1 [3] = molecular target: T1, TSPyV VP1; assay: X-ray co-crystal structure ([…] Å); also STD NMR; details: 10 mM glycan, co-crystallization, 20 °C, reservoir pH 5.0; STD NMR pH 7.4, 288 K; BC2-loop site with ccw DE-loop

SMILES: CC(=O)N[C@H]1[C@H]([C@H](O)[C@H](O)CO)O[C@@](OC[C@H]2O[C@@H](O[C@H]3[C@H](O)[C@@H](O)C(O)O[C@@H]3CO)[C@H](O)[C@@H](O)[C@H]2O)(C(=O)O)C[C@@H]1O (stereo partly drawn) [6’SL]
- X-ray co-crystal structure (1.65 Å) (TSPyV VP1 [1]): 4U61 (TSPyV VP1-6’SL)

SMILES: CC(=O)N[C@H]1[C@H]([C@H](O)[C@H](O)CO)O[C@@](O[C@H]2[C@@H](O)[C@@H](CO)O[C@@H](O[C@H]3[C@H](O)[C@@H](O)C(O)O[C@@H]3CO)[C@@H]2O)(C(=O)O)C[C@@H]1O (stereo partly drawn) [3’SL]
- X-ray crystal structure, soaked (1.55 Å) (TSPyV VP1 [2]): 4U62 (TSPyV VP1-3’SL)

SMILES: CC(=O)N[C@H]1[C@H](O[C@@H]2[C@H](O[C@]3(C(=O)O)C[C@H](O)[C@@H](NC(C)=O)[C@H]([C@H](O)[C@H](O)CO)O3)[C@@H](O)[C@H](O[C@H]3[C@H](O)[C@@H](O)C(O)O[C@@H]3CO)O[C@@H]2CO)O[C@H](CO)[C@H](O)[C@@H]1O[C@@H]1O[C@H](CO)[C@H](O)[C@H](O)[C@H]1O (stereo partly drawn) [GM1 glycan]
- X-ray co-crystal structure (1.50 Å); also STD NMR (TSPyV VP1 [3]): 4U60 (TSPyV VP1-GM1 glycan)
